In BindingDB's records for doi:10.7270/Q2251GJ9 (The Scripps Research Institute Molecular Screening Center, 2007):
Structures can show the parent of a compound that is named as a salt.

biological target: Sphingosine 1-phosphate receptor 1 (Homo sapiens, UniProt P21453); experiment: direct activation of human S1P1 – cell-based, agonist mode, 60K MLSMR set, dose response (AID 468); conditions: not given
Sequence (P21453 whole entry): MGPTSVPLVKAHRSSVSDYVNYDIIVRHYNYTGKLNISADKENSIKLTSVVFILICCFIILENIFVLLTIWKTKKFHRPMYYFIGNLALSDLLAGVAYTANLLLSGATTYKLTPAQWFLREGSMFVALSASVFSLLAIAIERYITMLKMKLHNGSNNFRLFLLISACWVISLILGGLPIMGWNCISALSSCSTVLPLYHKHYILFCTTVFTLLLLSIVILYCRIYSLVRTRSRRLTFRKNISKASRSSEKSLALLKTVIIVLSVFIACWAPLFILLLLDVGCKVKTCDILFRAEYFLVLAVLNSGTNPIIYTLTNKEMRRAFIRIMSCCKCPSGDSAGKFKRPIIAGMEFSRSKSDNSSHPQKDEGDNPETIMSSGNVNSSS

Row | Structure (SMILES) | EC50 [µM]
1 | CC1=NC(=O)NC(c2ccc(F)cc2)C1C(=O)OCc1ccc2c(c1)OCO2 (stereo unspecified) [1,3-benzodioxol-5-ylmethyl 4-(4-fluorophenyl)-6-methyl-2-oxidanylidene-3,4-dihydro-1H-pyrimidine-5-carboxylate] | 0.437
2 | Fc1ccc(COc2ccc(C=Nn3cnnc3)cc2)cc1 [1-[4-[(4-fluorophenyl)methoxy]phenyl]-N-(1,2,4-triazol-4-yl)methanimine] | 8.28
3 | CC(C)c1cc(C(=O)N2CCN(C(c3ccccc3)c3ccccc3)CC2)no1 [(4-benzhydrylpiperazin-1-yl)-(5-propan-2-yl-1,2-oxazol-3-yl)methanone] | > 10
4 | CC(C)(C)C1CCC2(CC1)C(C#N)=C(SCC(=O)Nc1ccccc1)NC(=O)C2C#N (stereo unspecified) [2-[(9-tert-butyl-1,5-dicyano-2-oxidanylidene-3-azaspiro[5.5]undec-4-en-4-yl)sulfanyl]-N-phenyl-ethanamide] | 4.92
5 | CCc1ccc2oc(-c3cc(N)cc(C)c3O)nc2c1 [(6E)-4-amino-6-(5-ethyl-3H-1,3-benzoxazol-2-ylidene)-2-methyl-1-cyclohexa-2,4-dienone] | 11.4
6 | O=S(=O)(C/C(=C/CO)S(=O)(=O)c1ccccc1)c1ccccc1 [(Z)-3,4-bis(benzenesulfonyl)but-2-en-1-ol] | > 3
7 | O=C(Cc1c[nH]c2ccccc12)N1CCc2ccccc21 | 9.43
8 | O=C(Nc1ccc(N2CCCC2)c(Cl)c1)c1ccc(Br)o1 [5-bromanyl-N-(3-chloranyl-4-pyrrolidin-1-yl-phenyl)furan-2-carboxamide] | 4.15
9 | O=C(CSc1nc2ccccc2o1)Nc1ccc(N2CCOCC2)c(Cl)c1 [2-(1,3-benzoxazol-2-ylsulfanyl)-N-(3-chloranyl-4-morpholin-4-yl-phenyl)ethanamide] | 1.02
10 | c1ccc2c(c1)oc1c(N3CCN(Cc4ccc5c(c4)OCO5)CC3)ncnc12 | 6.14
11 | O=C(Nc1ccc(-c2noc(CCc3ccccc3)n2)cc1)c1cccnc1 [MLS000047253] | 3.6
12 | Clc1ccc(-n2nnnc2Sc2ncnc3sccc23)cc1 [SMR000066808] | 6.39
13 | O=C(Nc1nc(-c2ccc(Cl)s2)cs1)c1ccncc1 [MLS000098514] | > 3
14 | Cc1cc(C(=O)CSc2nnc(-c3cccs3)o2)c(C)n1-c1ccccc1 [1-(2,5-dimethyl-1-phenyl-3-pyrrolyl)-2-[(5-thiophen-2-yl-1,3,4-oxadiazol-2-yl)thio]ethanone] | 4.66
15 | COc1ccc(-c2noc(-c3cc(C)cc(C)c3)n2)cc1OC [3-(3,4-dimethoxyphenyl)-5-(3,5-dimethylphenyl)-1,2,4-oxadiazole] | 1.23
16 | CC(C)(C)OC(=O)N[C@@H](Cc1ccccc1)c1nnc(S(=O)(=O)Cc2ccccc2)o1 [SMR000047857] | 4.1

Row | Structure (SMILES) | EC50 [µM]
17 | Cc1cc(C(=O)CSc2nnnn2C)c(C)n1-c1cccc(F)c1 [1-[1-(3-fluorophenyl)-2,5-dimethyl-3-pyrrolyl]-2-[(1-methyl-5-tetrazolyl)thio]ethanone] | 2.23
18 | Cc1ccc2nc(C(F)(F)F)c(C#N)c(N)c2c1 [4-amino-6-methyl-2-(trifluoromethyl)-3-quinolinecarbonitrile] | 7.58
19 | Cc1ccccc1-c1nnc(SCc2ccccc2F)o1 [2-[(2-fluorobenzyl)thio]-5-(2-methylphenyl)-1,3,4-oxadiazole] | 1.63
20 | Cc1ccc(C(C)C)c(OCc2ccc(-c3nnco3)cc2)c1 [2-[4-[(2-isopropyl-5-methyl-phenoxy)methyl]phenyl]-1,3,4-oxadiazole] | 2.43
21 | Cc1oc(-c2ccccc2)nc1Cn1cccc1C1=NC(c2ccccc2)CO1 (stereo unspecified) [SMR000026251] | 0.922
22 | CN(C)S(=O)(=O)c1ccc(C(=O)Nc2nc(-c3cccs3)cs2)cc1 [4-(dimethylsulfamoyl)-N-(4-thiophen-2-yl-1,3-thiazol-2-yl)benzamide] | > 10
23 | O=C(CCN1CCc2ccccc2CC1)c1ccc2c(c1)OCCO2 [1-(2,3-dihydro-1,4-benzodioxin-6-yl)-3-(1,2,4,5-tetrahydro-3-benzazepin-3-yl)-1-propanone;hydrochloride] | 10.5
24 | Cc1ccc(S(=O)(=O)Nc2ccc3ncccc3c2)cc1 [4-methyl-N-(6-quinolinyl)benzenesulfonamide] | 7.8
25 | COc1cc(C#CC#CCN2CCCCC2)ccc1O [2-methoxy-4-(5-piperidin-1-ylpenta-1,3-diynyl)phenol;hydrochloride] | 8.34
26 | Cc1cc(C)n2nc(SCC(=O)c3cc(C)n(-c4cc(C)on4)c3C)nc2n1 [1-[2,5-dimethyl-1-(5-methyl-1,2-oxazol-3-yl)pyrrol-3-yl]-2-[(5,7-dimethyl-[1,2,4]triazolo[1,5-a]pyrimidin-2-yl)sulfanyl]ethanone] | 4.18
27 | Cc1nc2sccn2c1-c1csc(NCc2ccccc2)n1 [4-(6-methyl-5-imidazo[2,1-b]thiazolyl)-N-(phenylmethyl)-2-thiazolamine] | 2.77
28 | COCC(=O)Nc1cccc(C(F)(F)F)c1 [2-methoxy-N-[3-(trifluoromethyl)phenyl]acetamide] | > 95
29 | Cc1ccc2[nH]c3c(N4CCCCCC4)ncnc3c2c1 [4-(azepan-1-yl)-8-methyl-5H-pyrimido[5,4-b]indole] | 4.15
30 | CCc1ccc(S(=O)(=O)NCCc2csc(-c3ccccc3)n2)s1 [5-ethyl-N-[2-(2-phenyl-1,3-thiazol-4-yl)ethyl]thiophene-2-sulfonamide] | 8.69
31 | Oc1ccc(-c2nnc(SCC3CCCCC3)o2)cc1 [4-(5-Cyclohexylmethylsulfanyl-[1,3,4]oxadiazol-2-yl)-phenol] | 0.552
32 | COc1ccc(-c2nc(-c3ccc(NC(=O)c4ccncc4)cc3)no2)cc1OC [MLS000115086] | 0.946

same assay, conditions: inactive by the depositor's call

Row | Structure (SMILES) | EC50 [µM]
33 | COc1ccc(S(=O)(=O)Cc2ccc(C(=O)N3CCN(c4cccc(C)c4C)CC3)o2)cc1 [MLS000120226] | 14
34 | COc1cccc(-c2nc(-c3ccc(NC(=O)c4cccnc4)cc3)no2)c1 [MLS000047254] | 26.1
35 | Cc1ccc(C)c(-n2nnnc2Sc2nnnn2-c2ccccc2)c1 [1-(2,5-dimethylphenyl)-5-(1-phenyltetrazol-5-yl)sulfanyltetrazole] | 12.8
36 | CC(C)OCCCNc1ncnc2c1[nH]c1ccccc12 [MLS000041327] | 14
37 | Cn1cccc1C(=O)OCc1cc(Cl)cc2c1OCOC2 [(6-chloranyl-4H-1,3-benzodioxin-8-yl)methyl 1-methylpyrrole-2-carboxylate] | 15.6
38 | CCOC(=O)c1oc2ccc(S(=O)(=O)n3nc(-c4ccc(OC)cc4)cc3N)cc2c1C [5-[5-amino-3-(4-methoxyphenyl)pyrazol-1-yl]sulfonyl-3-methyl-coumarilic acid ethyl ester] | 30.4
39 | Cc1cc(N2CCN(C(c3ccccc3)c3ccccc3)CC2)n2ncnc2n1 [7-(4-benzhydrylpiperazin-1-yl)-5-methyl-[1,2,4]triazolo[1,5-a]pyrimidine] | 14.5
40 | COc1ccc(-n2c(C)cc(C(=O)COC(=O)Cn3cnc4ccccc43)c2C)cc1 [2-(1-benzimidazolyl)acetic acid [2-[1-(4-methoxyphenyl)-2,5-dimethyl-3-pyrrolyl]-2-oxoethyl] ester] | 10.3
41 | CCCn1c(CNc2ccc(Br)cc2)nc2ccccc21 [(4-bromophenyl)-[(1-propylbenzimidazol-2-yl)methyl]amine] | 12.1
